This assay addresses GluA1o-γ8 (Homo sapiens (Human), UniProt P42261+Q8WXS5). Put plainly: Calcium flux assay (FLIPR), inhibition of TARP γ8 dependent AMPA receptor activity. Type of assay: cell-based. The conditions noted are these: HEK293 cells stably expressing GRIA1o-CACNG8 fusion construct; calcium flux following 15 μM glutamate; negative log of IC50 in molar.
GluA1o-γ8, sequence (P42261 other isoform, or with tags, fused parts or gaps): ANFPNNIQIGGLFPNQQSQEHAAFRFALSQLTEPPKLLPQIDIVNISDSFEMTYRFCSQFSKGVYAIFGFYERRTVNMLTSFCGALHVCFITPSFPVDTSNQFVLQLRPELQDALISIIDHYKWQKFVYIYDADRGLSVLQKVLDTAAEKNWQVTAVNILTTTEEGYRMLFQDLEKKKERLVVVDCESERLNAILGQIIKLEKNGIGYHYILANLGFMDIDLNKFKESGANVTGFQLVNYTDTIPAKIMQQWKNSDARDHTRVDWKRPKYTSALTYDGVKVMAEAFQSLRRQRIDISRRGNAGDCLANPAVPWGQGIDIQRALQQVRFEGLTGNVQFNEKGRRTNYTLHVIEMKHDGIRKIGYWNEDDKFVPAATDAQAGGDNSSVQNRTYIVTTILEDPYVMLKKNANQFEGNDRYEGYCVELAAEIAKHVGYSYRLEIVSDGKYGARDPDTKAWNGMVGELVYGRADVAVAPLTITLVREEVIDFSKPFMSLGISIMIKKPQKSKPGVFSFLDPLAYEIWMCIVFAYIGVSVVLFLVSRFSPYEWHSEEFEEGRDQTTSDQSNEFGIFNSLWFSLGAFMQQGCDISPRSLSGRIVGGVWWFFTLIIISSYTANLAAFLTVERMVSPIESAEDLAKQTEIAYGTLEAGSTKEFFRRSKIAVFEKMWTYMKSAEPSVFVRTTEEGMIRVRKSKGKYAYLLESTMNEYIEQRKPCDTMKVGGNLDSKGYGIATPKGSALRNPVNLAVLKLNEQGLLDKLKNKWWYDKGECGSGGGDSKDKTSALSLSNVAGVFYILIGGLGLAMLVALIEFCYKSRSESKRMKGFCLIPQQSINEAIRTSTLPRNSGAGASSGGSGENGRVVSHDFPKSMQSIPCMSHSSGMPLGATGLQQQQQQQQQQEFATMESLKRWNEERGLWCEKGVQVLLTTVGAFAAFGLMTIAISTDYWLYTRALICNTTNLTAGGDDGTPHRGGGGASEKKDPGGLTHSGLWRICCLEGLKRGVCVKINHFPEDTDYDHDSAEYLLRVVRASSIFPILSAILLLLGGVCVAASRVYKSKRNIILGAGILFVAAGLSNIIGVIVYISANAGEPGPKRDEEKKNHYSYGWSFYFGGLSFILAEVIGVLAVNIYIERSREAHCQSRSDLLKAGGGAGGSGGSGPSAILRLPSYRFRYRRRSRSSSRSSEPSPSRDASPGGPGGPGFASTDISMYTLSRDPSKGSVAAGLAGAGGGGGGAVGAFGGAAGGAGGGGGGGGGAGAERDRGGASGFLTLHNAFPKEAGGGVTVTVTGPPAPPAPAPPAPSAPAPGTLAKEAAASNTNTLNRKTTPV
For `Cc1ccn2cc(C(F)(F)F)nc2c1-c1cc(F)c2c(c1)CC(=O)N2` [Example 51, 7-Fluoro-5-[7-methyl-2-(trifluoromethyl)imidazo[1,2-a]pyridin-8-yl]indolin-2-one], the pIC50 worked out at 7.2.

Consider `FC(F)c1ccn2nc(C(F)(F)F)nc2c1-c1cc(Cl)c2[nH]ncc2c1` [Example 23, 8-(7-Chloro-1H-indazol-5-yl)-7-(difluoromethyl)-2-(trifluoromethyl)-[1,2,4]triazolo[1,5-a]pyridine], for which the pIC50 worked out at 9.4.

Consider `Cc1cc(-c2c(C(F)(F)F)ccn3cc(C(F)(F)F)nc23)cc2c1NC(=O)C2` [Example 87, 5-(2,7-Bis(trifluoromethyl)imidazo[1,2-a]pyridin-8-yl)-7-methylindolin-2-one], for which the pIC50 is on record as 9.4.

These data come from patent publication US10155769B2, “Fused azaheterocyclic compounds and their use as AMPA receptor modulators” (Janssen Pharmaceutica NV, priority 2016, dated 2018).
